Results on 27 compounds are retold here after US8791132B2, “Compounds and methods for treatment of hypertension” (Medivation Technologies, Inc., priority 2011, dated 2014).

This test has as its target T1, human recombinant adrenergic α2B receptor (Homo sapiens, UniProt P18089).
T1 construct: expressed in transfected cells; host or cells: CHO-K1
T1 sequence (P18089 1-450): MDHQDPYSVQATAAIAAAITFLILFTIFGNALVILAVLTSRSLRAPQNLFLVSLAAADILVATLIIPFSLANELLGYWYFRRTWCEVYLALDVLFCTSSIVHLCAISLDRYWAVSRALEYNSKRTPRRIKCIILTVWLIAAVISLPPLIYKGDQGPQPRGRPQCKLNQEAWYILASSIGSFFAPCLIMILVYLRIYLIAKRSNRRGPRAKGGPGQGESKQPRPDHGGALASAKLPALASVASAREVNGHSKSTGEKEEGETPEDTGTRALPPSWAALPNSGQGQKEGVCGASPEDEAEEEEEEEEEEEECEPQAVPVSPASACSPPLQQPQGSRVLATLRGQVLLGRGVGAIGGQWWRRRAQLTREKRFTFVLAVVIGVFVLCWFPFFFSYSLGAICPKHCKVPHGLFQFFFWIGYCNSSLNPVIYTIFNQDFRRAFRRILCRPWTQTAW
The experiment in a line: Radioligand binding, adrenergic α2B ([3H]Rauwolscine). The following applies: for inhibition at 0.03 µM / inhibition at 0.1 µM / Percentage inhibition of ligand binding, Adrenergic α2B / Percentage inhibition of ligand binding, Adrenergic α2B (0.1 μM) / Percentage inhibition of ligand binding, Adrenergic α2B (0.03 μM): [3H]Rauwolscine; for Ki: read-out: Ki α2B. The method, boiled down: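 Values are percent inhibition of specific radioligand binding. The receptor, expressed in CHO-K1 cells, was exposed to 2.5 nM [3H]Rauwolscine at 25° C for 60 min, with 10 μM Prazosin marking non-specific binding.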

Where [1] appears, read: read-out: Percentage inhibition of ligand binding, Adrenergic α2B (0.03 μM), compound at 0.03 μM, repeat datapoints each shown.
Setting [2] is: read-out: Percentage inhibition of ligand binding, Adrenergic α2B (0.1 μM), compound at 0.1 μM, repeat datapoints each shown.
[3] abbreviates: compound at 0.03 μM, repeat assays, each datapoint shown, read-out: Percentage inhibition of ligand binding, Adrenergic α2B.
Setting [4] is: compound at 0.1 μM, repeat assays, each datapoint shown, read-out: Percentage inhibition of ligand binding, Adrenergic α2B.
Setting [5] is: compound at 0.03 μM, repeat assays, each datapoint shown, 0.03 µM.
[6] abbreviates: compound at 0.1 μM, repeat assays, each datapoint shown, 0.1 µM.
[7] abbreviates: compound at 0.1 μM, repeat datapoints each shown, 0.1 µM.
Setting [8] is: compound at 0.03 μM, repeat datapoints each shown, 0.03 µM.

Values joined by “and” are separate entries in the source; they are usually repeats but may differ in a detail not shown here. Equal entries are not always repeated. Where two headings read alike, the source gives them in different places.

The term inhibition denotes the relative decrease from the control value, in per cent. As a reminder, the Ki is a dissociation constant, usually derived from enzyme kinetics or from competition with a known ligand.

Consider `Cc1ccc(C(O)Cn2c3c(c4cc(C)ccc42)CN(C)CC3)cc1` (racemic) [compound 183, racemic-2-(1,2,3,4-tetrahydro-2,8-dimethylpyrido[4,3-b]indol-5-yl)-1-p-tolylethanol], for which the inhibition at 0.03 µM under setting [1] came to 68%. For the same compound, under setting [2], the inhibition at 0.1 µM was determined as 80%.
For the compound `Cc1cnc2c(c1)c1c(n2CCc2ccc(C)nc2)CCN2CCCC12` (single isomer, unassigned) [74a, 10-methyl-7-(2-(6-methylpyridin-3-yl)ethyl)-2,3,5,6,7,11c-hexahydro-1H-pyrido[3′,2′:4,5]pyrrolo[2,3-g]indolizine], the Ki amounted to 1.42 nM. Besides, the inhibition at 0.03 µM under setting [3] amounted to 93%. In addition, the inhibition at 0.1 µM under setting [4] worked out at 101%.
As for `Cc1cnc2c(c1)c1c(n2CCc2ccc(C)nc2)CCN(C)C1` [II-110, 3,6-dimethyl-9-(2-(6-methylpyridin-3-yl)ethyl)-6,7,8,9-tetrahydro-5H-pyrrolo[2,3-b:4,5-c′]dipyridine], the inhibition at 0.03 µM under setting [1] stood at 11%. The inhibition at 0.1 µM under setting [2] stood at 47%.
In the case of `Cc1ccc2c(c1)c1c(n2CC(C)(O)c2cccnc2)CCN(C)C1` (stereo not shown) [compound 5, 1-(1,2,3,4-tetrahydro-2,8-dimethylpyrido[4,3-b]indol-5-yl)-2-(pyridin-3-yl)propan-2-ol], the inhibition at 0.03 µM under setting [3] was found to be 100%. The inhibition at 0.1 µM under setting [4] is 96%.
As to `Cc1ccc2c(c1)c1c(n2CCc2cccnc2)CCN(C)C1` [compound 61], the inhibition constant (Ki) was 5.89 nM. Moreover, under setting [5], the “Percentage inhibition of ligand binding, Adrenergic α2B” value worked out at 80%. The inhibition at 0.03 µM under setting [3] came to 65%. The “Percentage inhibition of ligand binding, Adrenergic α2B” value under setting [6] was 94%. Moreover, the inhibition at 0.1 µM under setting [4] came out at 85%.
As for `Cc1ccc2c(c1)c1c(n2CC2(c3ccccc3)OCCO2)CCN(C)C1` [compound 83], under setting [3], the inhibition at 0.03 µM was found to be 63%. The inhibition at 0.1 µM under setting [4] worked out at 78%.
Take `CCN1CCc2c(c3cc(C)ccc3n2CCc2ccncc2)C1` [compound 85]: the inhibition at 0.03 µM under setting [3] stood at 40%. Further, the inhibition at 0.1 µM under setting [4] was found to be 60%.
For the compound `Cc1ccc2c(c1)c1c(n2CCc2ccc(CO)nc2)CCN(C)C1` [compound 91], the inhibitory constant (Ki) is 9.84 nM and 10.7 nM and 12 nM. Further, under setting [5], the “Percentage inhibition of ligand binding, Adrenergic α2B” value was determined as 56%. Moreover, under setting [3], the inhibition at 0.03 µM worked out at 53%. Further, the “Percentage inhibition of ligand binding, Adrenergic α2B” value under setting [6] is given as 83%. Further, under setting [4], the inhibition at 0.1 µM is 82%. Also, under setting [2], the inhibition at 0.1 µM was found to be 87%.
On to `Cc1ccc2c(c1)c1c(n2CC(C)(O)c2ccc(O)cc2)CCN(C)C1` (stereo not shown) [compound 98], for which the “Percentage inhibition of ligand binding, Adrenergic α2B (0.1 μM)” value (shortened to “Percentage inhibition … (0.1 μM)”) under setting [7] came to 103%. For the same compound, the inhibition at 0.1 µM under setting [2] turned out to be 96%.
For `C/C(=C\n1c2c(c3cc(C)ccc31)CN(C)CC2)c1ccncn1` [compound 101], under setting [7], the “Percentage inhibition … (0.1 μM)” value stood at 76%. For the same compound, the inhibition at 0.1 µM under setting [2] worked out at 63%.
Take `Cc1ccc2c(c1)c1c(n2C2=C(c3ccncc3)CCC2)CCN(C)C1` [compound 114]: the Ki was 17.4 nM. Besides, the “Percentage inhibition … (0.1 μM)” value under setting [7] amounted to 71%. Further, the inhibition at 0.03 µM under setting [1] came to 42%. Under setting [2], the inhibition at 0.1 µM came out at 58%.
Turning to `Cc1ccc2c(c1)c1c(n2CNc2ccccn2)CCN(C)C1` [compound 120, (2,8-dimethyl-1,2,3,4-tetrahydro-pyrido[4,3-b]indol-5-ylmethyl)-pyridin-2-yl-amine], the Ki amounted to 20.5 nM. The “Percentage inhibition … (0.1 μM)” value under setting [7] turned out to be 70%. Besides, the inhibition at 0.03 µM under setting [1] was found to be 39%. Further, the inhibition at 0.1 µM under setting [2] was determined as 55%.
`Cc1ccc(CCn2c3c(c4cc(C)ccc42)CN(C)CC3)cc1` [compound 180, 2,3,4,5-tetrahydro-2,8-dimethyl-5-(4-methylphenethyl)-1H-pyrido[4,3-b]indole]: under setting [1], the inhibition at 0.03 µM is 91%. Under setting [2], the inhibition at 0.1 µM is 99%.
As to `Cc1ccc(CCn2c3c(c4ccccc42)CN(C)CC3)cc1` [compound 181, 2,3,4,5-Tetrahydro-2-methyl-5-(4-methylphenethyl)-1H-pyrido[4,3-b]indole], under setting [1], the inhibition at 0.03 µM was 70%. Besides, the inhibition at 0.1 µM under setting [2] was found to be 92%.
In the case of `CN1CCc2c(c3ccccc3n2CCc2ccccc2)C1` [compound 182, 2,3,4,5-Tetrahydro-2-methyl-5-phenethyl-1H-pyrido[4,3-b]indole], the inhibition at 0.03 µM under setting [1] was determined as 83%. Moreover, the inhibition at 0.1 µM under setting [2] was determined as 91%.
On to `C/C(=C\n1c2c(c3cc(Cl)ccc31)CN(C)CC2)c1ccncc1` [compound 185, 8-chloro-2,3,4,5-tetrahydro-2-methyl-5-((E)-2-(pyridin-4-yl)prop-1-enyl)-1H-pyrido[4,3-b]indole], for which the inhibitory constant (Ki) was found to be 3.8 nM. The “Percentage inhibition of ligand binding, Adrenergic α2B (0.03 μM)” value under setting [8] turned out to be 77%. Under setting [7], the “Percentage inhibition … (0.1 μM)” value was 97%. Besides, the inhibition at 0.03 µM under setting [1] is 73%. The inhibition at 0.1 µM under setting [2] was found to be 94%.
Consider `C/C(=C\n1c2c(c3cc(C)ccc31)CN(C)CC2)c1ccc(C)nc1` [compound 186], for which the Ki is 0.52 nM. The “Percentage inhibition of ligand binding, Adrenergic α2B (0.03 μM)” value under setting [8] was determined as 97%. Further, the “Percentage inhibition … (0.1 μM)” value under setting [7] was determined as 101%. For the same compound, the inhibition at 0.03 µM under setting [1] stood at 94%. In addition, the inhibition at 0.1 µM under setting [2] is 100%.
As for `C/C(=C\n1c2c(c3cc(C)ccc31)CN(C)CC2)c1cnc(N(C)C)nc1` [compound 187], the Ki amounted to 4.43 nM. The “Percentage inhibition … (0.1 μM)” value under setting [7] came to 98%. Besides, the inhibition at 0.03 µM under setting [1] came out at 78%. Besides, under setting [2], the inhibition at 0.1 µM stood at 84%.
On the same counts, the results for `C/C(=C\n1c2c(c3cc(C)ccc31)CN(C)CC2)c1sccc1C` [compound 189] are 0.86 nM, 107%, 96% and 104%.
For the compound `Cc1ccc2c(c1)c1c(n2C2=C(c3ccc(C)s3)CCC2)CCN(C)C1` [compound 190, 2,8-dimethyl-5-(2-(5-methylthiophen-2-yl)cyclopent-1-enyl)-2,3,4,5-tetrahydro-1H-pyrido[4,3-b]indole], the inhibitory constant (Ki) stood at 2.26 nM. For the same compound, the “Percentage inhibition … (0.1 μM)” value under setting [7] worked out at 99%. Also, the inhibition at 0.03 µM under setting [1] is 88%. Moreover, the inhibition at 0.1 µM under setting [2] came to 84%.
Regarding `Cc1ccc2c(c1)c1c(n2C2=C(c3ccc4c(ccn4C)c3)CCC2)CCN(C)C1` [compound 191, 2,8-dimethyl-5-(2-(1-methyl-1H-indol-5-yl)cyclopent-1-enyl)-2,3,4,5-tetrahydro-1H-pyrido[4,3-b]indole], the inhibitory constant (Ki) turned out to be 3.23 nM. The “Percentage inhibition … (0.1 μM)” value under setting [7] stood at 99%. Under setting [1], the inhibition at 0.03 µM is 84%. Moreover, the inhibition at 0.1 µM under setting [2] turned out to be 89%.
For the compound `CCN1CCc2c(c3cc(C)ccc3n2CCc2ccccc2)C1` [compound 201], under setting [1], the inhibition at 0.03 µM came to 16%. Moreover, the inhibition at 0.1 µM under setting [2] was found to be 36%.
For the compound `CCN1CCc2c(c3cc(C)ccc3n2CCc2ccc(C)cc2)C1` [compound 202], the inhibition at 0.03 µM under setting [1] was 7%. Further, under setting [2], the inhibition at 0.1 µM was found to be 22%.
In the case of `CCN1CCc2c(c3cc(C)ccc3n2CC(O)c2ccc(C)cc2)C1` (stereo not shown) [compound 203], the inhibition at 0.03 µM under setting [1] was determined as 23%. Also, under setting [2], the inhibition at 0.1 µM worked out at 41%.
With `CN1CCc2c(c3cccc(Cl)c3n2CCc2ccccc2)C1` [compound 216], the Ki stood at 0.95 nM. The “Percentage inhibition … (0.1 μM)” value under setting [7] turned out to be 106%. Further, under setting [1], the inhibition at 0.03 µM was 98%. Moreover, under setting [2], the inhibition at 0.1 µM amounted to 103%.
For the compound `COc1ccc(/C(C)=C/n2c3c(c4cc(Cl)ccc42)CCN(C)CC3)cc1F` [compound 240], the “Percentage inhibition … (0.1 μM)” value under setting [7] is on record as 97%. In addition, under setting [2], the inhibition at 0.1 µM was 83%.
The like results for `COc1ccc(/C(C)=C/n2c3c(c4cc(C)ccc42)CCN(C)CC3)cc1F` [compound 241] were, in that order, 93% and 91%.
